Reference: patent US12329739B2, “Isoflavonoid compounds and methods for the treatment of cancer” (Aardvark Therapeutics, Inc., priority 2010, dated 2025)
Values after ≈ are worked out from the molar mass of the structure shown.

Assays:
[1] = tested on: LNCaP; test: MTT proliferation assay, LNCaP; format: cell-based; details: Homo sapiens, Prostate, 120 h of exposure
Protocol: (§1) Proliferation Assays. IC50 values were determined for each cell line. Cells were seeded in 96-well plates at an appropriate cell density as determined from growth kinetics analysis and cultured for 5 days in the absence and presence of the test compounds. Cell proliferation was assessed after the addition of 20 μl of 3-4,5 dimethylthiazol-2,5-diphenyl tetrazolium bromide (MTT, 5 mg/ml in PBS, Sigma) for 5 hrs at 37° C. according to manufacturer's instructions. IC50 values were calculated from semi-log plots of % of control proliferation on the y-axis against log dose on the x-axis.
(§2) Anti-proliferative Activity of Isoflavonoid Derivatives. IC50 values were determined for each cell line after 120 h of exposure.

[2] = tested on: COLO205; test: MTT proliferation assay, COLO205; format: cell-based, human; details: Homo sapiens, COLO 205; CRC, COLO205, 120 h of exposure
Protocol: (§3) The human non-small cell lung adenocarcinoma lines NCI-H1299 (CRL-5803), NCI-H460 (HTB-177), NCI-H358 (CRL-5807), NCI-H838 (CRL-5844), the human colorectal adenocarcinoma lines COLO 205 (CCL-222), HCT-15 (CCL-225) and the human gastric cancer cell line NCI-N87 (CRL-5822) were cultured in RPMI 1640 medium containing 2 g/L sodium bicarbonate (Hyclone/Invitrogen) supplemented with 2 mM L-glutamine (Gibco) 1 mM sodium pyruvate (Sigma), 10 mM HEPES (Sigma) and 4500 mg/L glucose (Sigma). The human non-small cell lung adenocarcinoma line NCI-H2126 (CCL-256) was cultured in DMEM:F12(1:1) (Hyclone/Invitrogen) containing 2.5 mM L-glutamine 2.4 g/L sodium bicarbonate supplemented with 5% fetal bovine serum (FBS), an additional 2 mM L-glutamine, 15 mM HEPES, 0.005 mg/ml insulin (Sigma), 0.01 mg/ml transferrin (Sigma), 30 nM sodium selenite (Sigma), 10 nM hydrocortisone (Sigma) and 10 nM beta-estradiol (Sigma). The human colorectal adenocarcinoma line HT-29 (HTB-38) and the human gastric cancer cell lines OE-19 (#96071721) and MKN1 (JCRB0252) were cultured in RPMI 1640 media supplemented with 2 mM L-glutamine.
as §1, §2

[3] = tested on: A2780; test: MTT proliferation assay, A2780; format: cell-based
Protocol: as §1, §2

[4] = tested on: R-182; test: MTT proliferation assay, R-182; format: cell-based; details: Ovarian, R-182, 120 h of exposure
Excerpt: Tissue culture. The multidrug resistant primary epithelial ovarian cancer cell line R-182 TARA was a gift from Dr. Gil Mor (Yale University, New Haven, CT, USA). This cell line was derived by explant from ovarian tumors and cultured as previously described. All other cell lines were purchased from American Type Culture Collection (ATCC, Manassas, VA, USA) with the exception of MKN1, HuH-7, JHH-1, which were purchased from the Japanese Collection of Research Bioresources (JCRB, Osaka, Japan), and OE19 which was purchased from the European Collection of Cell Cultures (ECACC, Salisbury, UK).
as §1, §2

[5] = tested on: NCI-H460; test: MTT proliferation assay, NCI-H460; format: cell-based, human; details: Homo sapiens; NSCLC, NCI-H460, 120 h of exposure
Protocol: as §3, §1, §2

[6] = tested on: A549; test: MTT proliferation assay, A549; format: cell-based; details: Homo sapiens; NSCLC, A549, 120 h of exposure
Protocol: as §1, §2

[7] = tested on: A2058; test: MTT proliferation assay, A2058; format: cell-based
Protocol: as §1, §2

[8] = tested on: MM200; test: MTT proliferation assay, MM200; format: cell-based; details: Melanoma, MM200, 120 h of exposure
Protocol: as §1, §2

[9] = tested on: MDA-MB-468; test: MTT proliferation assay, MDA-MB-468; format: cell-based, human
Protocol: The human gastric cancer cell line AGS (CRL-1739) was cultured in Hams F-12K (Kaighans modification) medium containing 2 mM L-glutamine, 2.5 g/L sodium bicarbonate and 2 mM sodium pyruvate. The human breast adenocarcinoma line MDA-MB-468 (HTB-132) was cultured in DMEM:F12 (1:1) medium containing 2.5 mM L-glutamine, 2.4 g/L sodium bicarbonate, supplemented with an additional 2 mM L-glutamine.
as §1, §2

[10] = tested on: MM2200; test: MTT proliferation assay, MM2200; format: cell-based; details: Table 2, Melanoma, MM2200, 120 hrs of exposure
Protocol: as §1, §2
Activity data is provided is Table 2.

[11] = Solubility in Captisol solution; format: physicochemical; details: 20% Captisol solution, aqueous with cosolvent or surfactant or cyclodextrin, 25° C., read-out: solubility limit
Protocol: (20% Captisol®). Formulation is carried out under aseptic conditions. Sterility is achieved by terminal filtration through a 0.22 micron filter.

[12] = tested on: A2780 ovarian cancer cells; test: Combination with carboplatin, proliferation of A2780 cells; format: cell-based; details: 0.5, 1 and 5 μM of compound plus 0.4 μM carboplatin

IC50 [1]: 150 to 500 nM | IC50 [2]: 1.6 to 10 µM | IC50 ([3]; Homo sapiens, A2780, 120 h, Ovarian, A2780, 120 h of exposure): 150 to 500 nM | IC50 ([3]; Table 2, Ovarian, A2780, 120 hrs of exposure): 150 to 500 nM | IC50 [5]: 510 to 1500 nM | IC50 [6]: 510 to 1500 nM | IC50 ([9]; Homo sapiens, MDA-MB-468, 120 h, Breast, MDA-MB-468, 120 h of exposure): ≤ 150 nM | IC50 ([9]; Table 2, Breast, MDA-MB-468, 120 hrs of exposure): ≤ 150 nM | solubility [11]: 27.9 mg/mL (≈ 83.4 mM)
SMILES: Oc1ccc([C@H]2c3ccc(O)cc3OC[C@H]2c2ccc(O)cc2)cc1 [Compound 31, d-cis-3-(4-hydroxyphenyl)-4-(4-hydroxyphenyl)chroman-7-ol]
anti-proliferative activity against various cancer cells compared with racemic (compound 32) and l-form (compound 33) ([3]; 120 hrs of exposure, various cancer cells (Table 2)): superior anti-proliferative activity | IC50 [4]: ≤ 150 nM | IC50 ([7]; Homo sapiens, A2058, 120 h, Melanoma, A2058, 120 h of exposure): ≤ 150 nM | IC50 ([7]; Table 2, Melanoma, A2058, 120 hrs of exposure): ≤ 150 nM | IC50 [8]: 510 to 1500 nM | IC50 [10]: 510 to 1500 nM | cell kill level observed (no IC50 for carboplatin achieved) [12]: 25-40 % of control
